Measured values: the supplement of paper PMC10627819

What was measured:
[1] = system: S. aureus Newman; assay: Bliss interaction score (quartile over a dose matrix) (fitness difference); higher = more antagonism (negative = synergy)
Outline: (§1)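 Quartiles summarise the Bliss score over technical, biological and donor/recipient replicates, where the score is observed minus expected fitness under a product model. Expected fitness uses single-drug values inferred from combination data. Fitness is OD595 at entry into stationary phase over the plate's robust no-drug mean, capped at 1.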

[2] = system: S. pneumoniae D39V; assay: as above
Outline: as §1

[3] = system: S. aureus DSM 20231; assay: as above
Outline: as §1

[4] = system: B. subtilis 168; assay: as above
Outline: as §1

[5] = system: S. aureus Newman; assay: fitness (endpoint OD595 vs no drug) (fraction); higher = more growth
Outline: (§2)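 Each well of a 384-well plate received 30 µl of culture at OD595 0.01, or 55 µl for S. pneumoniae. TSB, LB Lennox or CY served as media at 37 °C. OD595 was taken every 30 min for 14 h and corrected by subtracting the first reading. Fitness is the optical density at stationary-phase entry divided by the robust mean of no-drug controls, capped at 1.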

[6] = system: S. pneumoniae D39V; assay: as above
Outline: as §2

[7] = system: B. subtilis 168; assay: as above
Outline: as §2

[8] = system: S. aureus DSM 20231; assay: as above
Outline: as §2
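Throughout, for Bliss interaction score (quartile over a dose matrix): first quartile when negative (synergy) and third quartile when positive (antagonism).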

CO/N=C(\C(=O)N[C@@H]1C(=O)N2C(C(=O)O)=C(COC(C)=O)CS[C@H]12)c1csc(N)n1 [Cefotaxime] + CC(C1CCC(C(O1)OC2C(CC(C(C2O)OC3C(C(C(CO3)(C)O)NC)O)N)N)N)NC [Gentamicin]
main component drawn
Conditions | Bliss interaction score
[1] | 0.0788
[2] | 0.0656
[3] | 0.0541
[4] | -0.0898

one replicate, main component drawn
Conditions | fitness
[5], first compound 0.039 µg/mL, partner 0.5 µg/mL | 0.79
[5], first compound 0.039 µg/mL, partner 1 µg/mL | 0.857
[5], first compound 0.039 µg/mL, partner 2 µg/mL | 0.951
[5], first compound 0.078 µg/mL, partner 0.375 µg/mL | 0.757
[5], first compound 0.078 µg/mL, partner 0.5 µg/mL | 0.821
[5], first compound 0.078 µg/mL, partner 0.75 µg/mL | 0.772
[5], first compound 0.078 µg/mL, partner 1 µg/mL | 0.8
[5], first compound 0.078 µg/mL, partner 1.5 µg/mL | 0.759
[5], first compound 0.078 µg/mL, partner 2 µg/mL | 0.977
[5], first compound 0.156 µg/mL, partner 0.375 µg/mL | 0.52
[5], first compound 0.156 µg/mL, partner 0.5 µg/mL | 0.744
[5], first compound 0.156 µg/mL, partner 0.75 µg/mL | 0.533
[5], first compound 0.156 µg/mL, partner 1 µg/mL | 0.763
[5], first compound 0.156 µg/mL, partner 1.5 µg/mL | 0.595
[5], first compound 0.156 µg/mL, partner 2 µg/mL | 0.872
[5], first compound 0.312 µg/mL, partner 0.375 µg/mL | 0.345
[5], first compound 0.312 µg/mL, partner 0.75 µg/mL | 0.389
[5], first compound 0.312 µg/mL, partner 1.5 µg/mL | 0.399
[5], first compound 0.625 µg/mL, partner 0.375 µg/mL | 0.0576
[5], first compound 0.625 µg/mL, partner 0.75 µg/mL | 0.0523
[5], first compound 0.625 µg/mL, partner 1.5 µg/mL | 0.0345
[5], first compound 1.25 µg/mL, partner 0.375 µg/mL | 0.0504
[5], first compound 1.25 µg/mL, partner 0.75 µg/mL | 0.0617
[5], first compound 1.25 µg/mL, partner 1.5 µg/mL | 0.0569
[5], first compound 2.5 µg/mL, partner 0.375 µg/mL | 0.0422
[5], first compound 2.5 µg/mL, partner 0.75 µg/mL | 0.074
[5], first compound 2.5 µg/mL, partner 1.5 µg/mL | 0.0764
[7], first compound 0.00775 µg/mL, partner 0.0625 µg/mL | 0.66
[7], first compound 0.00775 µg/mL, partner 0.125 µg/mL | 0.0541
[7], first compound 0.00775 µg/mL, partner 0.25 µg/mL | 0.0723
[7], first compound 0.0155 µg/mL, partner 0.0625 µg/mL | 0.16
[7], first compound 0.0155 µg/mL, partner 0.125 µg/mL | 0.0431
[7], first compound 0.0155 µg/mL, partner 0.25 µg/mL | 0.0419
[7], first compound 0.031 µg/mL, partner 0.0625 µg/mL | 0.0439
[7], first compound 0.031 µg/mL, partner 0.125 µg/mL | 0.0439
[7], first compound 0.031 µg/mL, partner 0.25 µg/mL | 0.0452
[7], first compound 0.0625 µg/mL, partner 0.0625 µg/mL | 0.754
[7], first compound 0.0625 µg/mL, partner 0.125 µg/mL | 0.701
[7], first compound 0.0625 µg/mL, partner 0.25 µg/mL | 0.155
[7], first compound 0.125 µg/mL, partner 0.0625 µg/mL | 0.65
[7], first compound 0.125 µg/mL, partner 0.125 µg/mL | 0.449
[7], first compound 0.125 µg/mL, partner 0.25 µg/mL | 0.103
[7], first compound 0.25 µg/mL, partner 0.0625 µg/mL | 0.581
[7], first compound 0.25 µg/mL, partner 0.125 µg/mL | 0.22
[7], first compound 0.25 µg/mL, partner 0.25 µg/mL | 0.129

main component drawn
Conditions | fitness
[5], first compound 0.625 µg/mL, partner 0.5 µg/mL | 0.389
[5], first compound 0.625 µg/mL, partner 1 µg/mL | 0.44
[5], first compound 0.625 µg/mL, partner 2 µg/mL | 0.397
[5], first compound 1.25 µg/mL, partner 0.5 µg/mL | 0.0594
[5], first compound 1.25 µg/mL, partner 1 µg/mL | 0.0679
[5], first compound 1.25 µg/mL, partner 2 µg/mL | 0.0372
[5], first compound 2.5 µg/mL, partner 0.5 µg/mL | 0.0199
[5], first compound 2.5 µg/mL, partner 1 µg/mL | 0.0366
[5], first compound 2.5 µg/mL, partner 2 µg/mL | 0.0507
[6], first compound 0.0018 µg/mL, partner 2 µg/mL | 0.999
[6], first compound 0.0018 µg/mL, partner 4 µg/mL | 0.988
[6], first compound 0.0018 µg/mL, partner 8 µg/mL | 0.971
[6], first compound 0.0035 µg/mL, partner 2 µg/mL | 0.967
[6], first compound 0.0035 µg/mL, partner 4 µg/mL | 0.956
[6], first compound 0.0035 µg/mL, partner 8 µg/mL | 0.917
[6], first compound 0.007 µg/mL, partner 2 µg/mL | 0.895
[6], first compound 0.007 µg/mL, partner 4 µg/mL | 0.896
[6], first compound 0.007 µg/mL, partner 8 µg/mL | 0.867
[7], first compound 0.5 µg/mL, partner 0.0625 µg/mL | 0.155
[7], first compound 0.5 µg/mL, partner 0.125 µg/mL | 0.055
[7], first compound 0.5 µg/mL, partner 0.25 µg/mL | 0.0842
[7], first compound 1 µg/mL, partner 0.0625 µg/mL | 0.0509
[7], first compound 1 µg/mL, partner 0.125 µg/mL | 0.04
[7], first compound 1 µg/mL, partner 0.25 µg/mL | 0.0527
[7], first compound 2 µg/mL, partner 0.0625 µg/mL | 0.0909
[7], first compound 2 µg/mL, partner 0.125 µg/mL | 0.0759
[7], first compound 2 µg/mL, partner 0.25 µg/mL | 0.0872

CO/N=C(\C(=O)N[C@@H]1C(=O)N2C(C(=O)O)=C(COC(C)=O)CS[C@H]12)c1csc(N)n1 [Cefotaxime] + Cc1ncc([N+](=O)[O-])n1CCO [Metronidazole]
Conditions | Bliss interaction score
[1] | 0.0437
[2] | 0.0575
[3] | -0.0403
[4] | 0.0904

fitness, one replicate
Conditions | partner 0.625 µg/mL | partner 0.781 µg/mL | partner 1.25 µg/mL | partner 1.562 µg/mL | partner 2.5 µg/mL | partner 3.124 µg/mL
[5], first compound 0.039 µg/mL | 0.888 | – | 0.794 | – | 0.817 | –
[5], first compound 0.078 µg/mL | – | 0.714 | – | 0.756 | – | 0.788
[5], first compound 0.156 µg/mL | – | 0.492 | – | 0.486 | – | 0.529
[5], first compound 0.312 µg/mL | 0.248 | 0.305 | 0.311 | 0.397 | 0.329 | 0.361
[5], first compound 0.625 µg/mL | – | 0.0599 | – | 0.0931 | – | 0.0887
[5], first compound 1.25 µg/mL | – | 0.0419 | – | 0.0637 | – | 0.07
[5], first compound 2.5 µg/mL | – | 0.0362 | – | 0.0976 | – | 0.0571
[7], first compound 0.00775 µg/mL | 0.871 | – | 0.887 | – | 0.851 | –
[7], first compound 0.0155 µg/mL | 0.728 | – | 0.672 | – | 0.707 | –
[7], first compound 0.031 µg/mL | 0.553 | – | 0.576 | – | 0.594 | –

fitness
Conditions | partner 0.625 µg/mL | partner 1.073 µg/mL | partner 1.25 µg/mL | partner 2.145 µg/mL | partner 2.5 µg/mL | partner 4.29 µg/mL | partner 5 µg/mL
[5], first compound 0.078 µg/mL | 0.767 | – | 0.779 | – | 0.792 | – | –
[5], first compound 0.156 µg/mL | 0.663 | – | 0.705 | – | 0.674 | – | –
[6], first compound 0.0018 µg/mL | – | 0.976 | 0.963 | 0.928 | 0.996 | 0.972 | 0.975
[6], first compound 0.0035 µg/mL | – | 0.987 | 0.979 | 0.92 | 0.975 | 0.939 | 0.973
[6], first compound 0.007 µg/mL | – | 0.95 | 0.961 | 0.89 | 0.99 | 0.933 | 0.953
[7], first compound 0.5 µg/mL | 0.299 | – | 0.289 | – | 0.278 | – | –
[7], first compound 1 µg/mL | 0.152 | – | 0.135 | – | 0.146 | – | –
[7], first compound 2 µg/mL | 0.0908 | – | 0.109 | – | 0.108 | – | –
[8], first compound 0.039 µg/mL | 0.825 | – | 0.888 | – | 0.963 | – | –
[8], first compound 0.078 µg/mL | 0.829 | – | 0.828 | – | 0.913 | – | –
[8], first compound 0.156 µg/mL | 0.689 | – | 0.745 | – | 0.813 | – | –
[8], first compound 0.312 µg/mL | 0.621 | – | 0.649 | – | 0.674 | – | –
